Patent publication US20220098525A1, “LAUNDRY DETERGENT” (Conopco, Inc., d/b/a UNILEVER, priority 2019, published 2022)
Where two headings read alike, the source gives them in different places.

Key:
Assay type in all cases: physicochemical
[1] = dissolution of dye in water for pKa measurement; settings: approximately 2×10^−5 mol L^−1 in water, conditions analogous to the reference dye
Method: (§1) pKa values (acid dissociation constant) were measured for the reference dye by dissolving approximately 2×10^−5 mol L^−1 of the dye in water then varying the pH from 9.6 to 1.9 and observing the changes in the UV-VIS spectrum at 570 nm. The pKa values are higher than expected for a free —COOH group which would be 3 to 4 and is attributed to the effect of the alkyl chains.

[2] = hydrolysis in the region of pH 4 to 10
[3] = pKa measured by pH variation and UV-VIS spectrum at 570 nm; settings: water, pH 4, approximately 2×10^−5 mol L^−1 dye in water, pH varied 9.6 to 1.9, UV-VIS at 570 nm; dual pKa fit for the 2 -COOH groups
Method: as §1

dissolution in water [1]	hydrolysis [2]	hydrolysis ([2]; listed as inventive compound)	pKa [3]	Compound
did not dissolve	not observed	resistant to hydrolysis		C=COCCOCCN(CCOCCO)c1ccc(/N=N/c2sc(C#N)c(C)c2C#N)c(C)c1 [inventive]
	observed		7.5	CCCCC/C=C/CC(CC(=O)OCCOCCN(CCOCCOC(=O)CC(C/C=C/CCCCC)C(=O)O)c1ccc(/N=N/c2sc(C#N)c(C)c2C#N)c(C)c1)C(=O)O (centres unmarked) [reference, reference compound]
